Key:
LPL (lipoprotein lipase) = molecular target: T1, LPL (lipoprotein lipase) (Mus musculus, UniProt P11152); assay: Confirmation test of LPL activation effect in mouse skeletal muscle cells (C2C12 cells); assay type: cell-based; details: 8 hours exposure, vs control group
T1 construct: endogenous in cells; host or cells: C2C12 cells, differentiated
T1 sequence (P11152 28-474): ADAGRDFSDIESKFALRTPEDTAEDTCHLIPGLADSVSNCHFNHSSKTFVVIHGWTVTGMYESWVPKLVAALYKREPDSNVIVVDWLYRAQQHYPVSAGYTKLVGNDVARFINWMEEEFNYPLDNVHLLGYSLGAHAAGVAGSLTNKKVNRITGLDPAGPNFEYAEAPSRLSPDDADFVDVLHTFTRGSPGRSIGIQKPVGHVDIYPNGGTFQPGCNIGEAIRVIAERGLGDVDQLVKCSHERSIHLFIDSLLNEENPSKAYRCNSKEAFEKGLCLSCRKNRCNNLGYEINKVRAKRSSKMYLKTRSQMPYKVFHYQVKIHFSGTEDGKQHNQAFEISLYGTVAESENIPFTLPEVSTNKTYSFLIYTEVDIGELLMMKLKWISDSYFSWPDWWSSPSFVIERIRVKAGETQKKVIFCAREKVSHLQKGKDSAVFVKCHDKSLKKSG
Experimental: Human skeletal muscle cells (human skeletal muscle myoblasts) or mouse skeletal muscle cells (C2C12 cells) that were seeded onto plates, cultured, and differentiated were exposed to a 0.3% dimethyl sulfoxide-containing culture medium in which the compound of the present invention was dissolved (concentration: 10 μM or 30 μM). The medium was removed 8 hours after exposure, 10 mM of Tris-HCl buffer (150 mM NaCl, 10 μ/mL; containing heparin sodium) was added to the cells, and the cells were incubated at 37° C. in the presence of 5% CO2 for 10 minutes. LPL activity in the supernatant was measured using an LPL activity assay kit (made by Roar Biomedical Inc.). LPL activity was evaluated based on the increase in fluorescence intensity 10 to 70 minutes after mixing the supernatant with the LPL substrate. The mean value of the increase in fluorescence intensity of the cells exposed to a 0.3% dimethyl sulfoxide-containing culture medium […] was used as mean value of the control group. Note that the compounds of Examples 18, 19, 32, 45 and 57 were tested using human skeletal muscle cells, and other compounds were tested using mouse skeletal muscle cells. The rate of increase (%) was calculated from the measured values of LPL activity in the control group and the experimental group, according to the following formula. Rate of increase in LPL activity (%)=[(mean value of the experimental group)−(mean value of the control group)]/(mean value of the control group)×100

| Rate of increase in LPL activity (LPL (lipoprotein lipase); amount of addition 10 μM) | Rate of increase in LPL activity (LPL (lipoprotein lipase); amount of addition 30 μM) | melting point | Compound |
| --- | --- | --- | --- |
| 54% | 119% | 236 to 237 °C | COc1cc(-c2c[nH]c(-c3ccc(C)c(F)c3)n2)ccc1OCc1ccccc1.Cl [Example 16] |
| 81% | 143% | 182 to 184 °C | COc1cc(OCc2ccc(C#N)cc2)ccc1-c1c[nH]c(-c2ccc(C(F)(F)F)cc2)n1 [Example 17] |
| 59% | 77% | 188 to 192 °C | COc1cc(OCc2ccccc2)ccc1-c1c[nH]c(-c2ccsc2)n1 [Example 24] |
| 31% | 51% | 177 to 179 °C | COc1cc(-c2c[nH]c(-c3ccoc3)n2)ccc1OCc1ccccc1 [Example 26] |
| 30% | 53% | 138 to 141 °C | COc1cc(-c2c[nH]c(-c3ccc(C(C)(C)C)cc3)n2)ccc1OCc1ccccc1 [Example 28] |
| 11% | 47% | 154 to 156 °C | COc1cc(OCc2ccccc2)ccc1-c1c[nH]c(C(C)C)n1 [Example 30] |
| 10% | 38% | 197 to 200 °C | COc1cc(-c2c[nH]c(-c3cccs3)n2)ccc1OCc1ccc(Cl)cc1 [Example 31] |
| 60% | 84% | 142 to 145 °C | COc1cc(-c2c[nH]c(-c3cc(Cl)cc(Cl)c3)n2)ccc1OCc1ccc(Cl)cc1 [Example 33] |
| 6% | 113% | 214 to 216 °C | COc1cc(-c2c[nH]c(-c3ccc(F)cc3)n2)ccc1OCc1ccccc1 [Example 36] |
| 35% | 100% | 222 to 227 °C | COC(=O)c1ccc(-c2nc(-c3ccc(OCc4ccccc4)c(OC)c3)c[nH]2)cc1.Cl [Example 38] |
| 47% | 131% | 217 to 220 °C | COc1cc(OCc2ccccc2)ccc1-c1c[nH]c(-c2ccc(F)cc2)n1.Cl [Example 42] |
| 64% | 157% | 174 to 176 °C | COc1cc(OCc2ccc(Cl)cc2)ccc1-c1c[nH]c(-c2ccc(F)cc2)n1 [Example 43] |
| 49% | 88% | 212 to 215 °C | COc1cc(-c2c[nH]c(-c3cccc(F)c3)n2)ccc1OCc1ccccc1.Cl [Example 46] |
| 38% | 120% | 226 to 227 °C | COc1cc(-c2c[nH]c(-c3ccc(F)c(F)c3)n2)ccc1OCc1ccccc1.Cl [Example 47] |
| 18% | 96% | 243 to 245 °C | COc1cc(-c2c[nH]c(-c3ccc(F)cc3)n2)ccc1OCc1ccc(Cl)cc1.Cl [Example 48] |
| 47% | 147% | 214 to 218 °C | COc1cc(-c2nc(-c3ccc(F)cc3)[nH]c2C)ccc1OCc1ccccc1 [Example 49] |
| 20% | 70% | 204 to 206 °C | COc1cc(-c2c[nH]c(-c3ccc(F)cc3)n2)ccc1OCc1ccccc1C#N [Example 50] |
| 16% | 115% | 173 to 174 °C | COc1cc(-c2c[nH]c(-c3cccc(C(F)(F)F)c3)n2)ccc1OCc1ccc(Br)cc1F [Example 51] |
| 18% | 87% | 231 to 235 °C | COc1cc(OCc2ccccc2)ccc1-c1c[nH]c(-c2cccc(F)c2)n1.Cl [Example 54] |
| 49% | 94% | 231 to 233 °C | COc1cc(-c2c[nH]c(-c3ccc(C(F)(F)F)cc3)n2)ccc1OCc1ccc(C#N)cc1 [Example 55] |

| Rate of increase in LPL activity (LPL (lipoprotein lipase); amount of addition 10 μM) | Rate of increase in LPL activity (LPL (lipoprotein lipase); amount of addition 30 μM) | melting point | Compound |
| --- | --- | --- | --- |
| 38% | 62% | 224 to 226 °C | COc1cc(-c2c[nH]c(-c3ccc(F)cc3)n2)ccc1OCc1ccc(C#N)cc1 [Example 56] |
| 45% | 150% | > 250 °C | COc1cc(OCc2ccc(Br)cc2F)ccc1-c1c[nH]c(-c2cccc(C(F)(F)F)c2)n1.Cl [Example 58] |
| 22% | 73% | 205 to 209 °C | COc1cc(-c2c[nH]c(-c3cccc(F)c3)n2)ccc1OCc1ccc(C#N)cc1 [Example 59] |
| 53% | 92% | 242 to 244 °C | COc1cc(-c2c[nH]c(-c3ccc(F)cc3)n2)ccc1OCc1cccc(C#N)c1.Cl [Example 61] |
| 24% | 46% | 183 to 186 °C | COc1cc(OCc2ccc(C#N)cc2)ccc1-c1c[nH]c(-c2ccsc2)n1 [Example 65] |
| 24% | 32% | 176 to 180 °C | COc1cc(-c2c[nH]c(-c3ccsc3)n2)ccc1OCc1ccc(C#N)cc1 [Example 66] |
| 10% | 289% | 247 to 249 °C | COc1cc(OCc2ccc(Br)cc2F)ccc1-c1c[nH]c(-c2ccsc2)n1.Cl [Example 68] |
| 52% | 142% | 251 to 252 °C | COc1cc(-c2c[nH]c(-c3ccsc3)n2)ccc1OCc1ccc(Br)cc1F.Cl [Example 69] |
| 42% | 114% | 197 to 201 °C | COc1cc(-c2c[nH]c(-c3ccsc3)n2)ccc1OCc1ccc(Cl)cc1 [Example 71] |
| 70% | 123% | 224 to 227 °C | COc1cc(-c2c[nH]c(-c3ccsc3)n2)ccc1OCc1cccc(C#N)c1.Cl [Example 72] |
| 55% | 108% | 236 to 237 °C | COc1cc(-c2c[nH]c(-c3ccsc3)n2)ccc1OCc1ccccc1C#N.Cl [Example 73] |
| 43% | 89% | 231 to 232 °C | COc1cc(-c2c[nH]c(-c3cccc(C(F)(F)F)c3)n2)ccc1OCc1ccc(C#N)cc1.Cl [Example 75] |
| 115% | 263% | 186 to 187 °C | COc1cc(OCc2ccc(C#N)cc2)ccc1-c1c[nH]c(-c2ccc(Cl)cc2)n1 [Example 76] |
| 54% | 133% | 231 to 232 °C | COc1cc(-c2c[nH]c(-c3ccc(Cl)cc3)n2)ccc1OCc1ccc(C#N)cc1 [Example 77] |
| 14% | 60% | 231 to 232 °C | COc1cc(OCc2ccc(Cl)cc2)ccc1-c1c[nH]c(-c2cccc(F)c2)n1.Cl [Example 78] |
| 16% | 64% | 235 to 237 °C | COc1cc(-c2c[nH]c(-c3cccc(F)c3)n2)ccc1OCc1ccc(Cl)cc1.Cl [Example 79] |
| 21% | 302% | 191 to 195 °C | COc1cc(OCc2ccc(Br)cc2F)ccc1-c1c[nH]c(-c2ccc(Cl)cc2)n1 [Example 80] |
| 32% | 89% | 224 to 228 °C | COc1cc(OCc2ccc(Br)cc2F)ccc1-c1c[nH]c(-c2ccccc2C(F)(F)F)n1.Cl [Example 81] |
| 27% | 86% | 181 to 184 °C | COc1cc(OCc2ccc(Cl)cc2)ccc1-c1c[nH]c(-c2ccc(Cl)cc2)n1 [Example 82] |

Reference: US8329739B2, “Phenylimidazole compounds” (Otsuka Pharmaceutical Factory, Inc., priority 2009, dated 2012)
